According to DBAASP:
Values after ≈ are worked out from the molar mass of the structure shown. Values joined by “and” are separate entries in the source; they are usually repeats but may differ in a detail not shown here. Identical values can stand only once.

Tests used:
Test in all cases: ≥ marks a high value that may be exact or a test limit, other limits are often not marked, values filed in µg/mL are converted to µM
Streptococcus mutans = tested on: Streptococcus mutans
[1] = tested on: Pseudomonas aeruginosa KCTC 1637
[2] = tested on: Salmonella typhimurium KCTC 1926
[3] = tested on: Staphylococcus epidermidis KCTC 1917
[4] = tested on: Escherichia coli KCTC 1682
[5] = tested on: Staphylococcus aureus KCTC 1621
[6] = tested on: Bacillus subtilis KCTC 3068
[7] = tested on: Staphylococcus aureus ATCC 43300
[8] = tested on: Pseudomonas aeruginosa PAO1
[9] = tested on: Staphylococcus aureus USA 300
[10] = tested on: Candida albicans ATCC 2002
[11] = tested on: Escherichia coli ATCC 25922
[12] = tested on: Staphylococcus aureus ATCC 25923
[13] = tested on: Pseudomonas aeruginosa CMCCB 10104

Row | MIC (Streptococcus mutans) | MIC [1] | MIC [2] | MIC [3] | MIC [4] | MIC [5] | MIC [6] | Structure (SMILES) | further results
1 | 5.81 µM (≈ 16 µg/mL) |  |  |  |  |  |  | C[C@H](NC(=O)[C@H](CO)NC(=O)[C@H](C)NC(=O)[C@H](Cc1ccccc1)NC(=O)[C@H](Cc1c[nH]c2ccccc12)NC(=O)[C@H](CCCN=C(N)N)NC(=O)[C@H](Cc1c[nH]c2ccccc12)NC(=O)[C@H](CCCN=C(N)N)NC(=O)[C@H](Cc1c[nH]c2ccccc12)NC(=O)[C@@H](N)CCCN=C(N)N)C(=O)N[C@@H](CO)C(=O)N[C@@H](C)C(=O)N[C@@H](CCCN=C(N)N)C(=O)N[C@@H](Cc1c[nH]c2ccccc12)C(=O)N[C@@H](CCCN=C(N)N)C(=O)N[C@@H](Cc1c[nH]c2ccccc12)C(=O)N[C@@H](CCCN=C(N)N)C(=O)N[C@@H](Cc1c[nH]c2ccccc12)C(=O)N[C@@H](Cc1ccccc1)C(N)=O [RWRWRWFASASARWRWRWF] | 
2 | ≥ 95.8 µM |  |  |  |  |  |  | CC[C@H](C)[C@H](NC(=O)[C@H](CC(N)=O)NC(=O)[C@H](CCCCN)NC(=O)[C@H](CC(C)C)NC(=O)[C@H](CO)NC(=O)[C@H](CCC(N)=O)NC(=O)[C@H](CC(C)C)NC(=O)[C@@H](NC(=O)[C@@H](N)[C@@H](C)O)[C@@H](C)CC)C(=O)N[C@@H](Cc1ccccc1)C(=O)N[C@@H](CCCCN)C(=O)O [TILQSLKNIFK] | 
3 |  | 8 µM (≈ 18.1 µg/mL) | 4 µM (≈ 9.06 µg/mL) | 8 µM (≈ 18.1 µg/mL) | 8 µM (≈ 18.1 µg/mL) | 4 µM (≈ 9.06 µg/mL) | 4 µM (≈ 9.06 µg/mL) | CC[C@H](C)[C@H](NC(=O)[C@H](CC(C)C)NC(=O)[C@@H](N)CC(C)C)C(=O)N[C@H](C(=O)N[C@@H](CC(C)C)C(=O)N[C@@H](CCCN=C(N)N)C(=O)N[C@@H](CCCN=C(N)N)C(=O)N[C@@H](CCCN=C(N)N)C(=O)N[C@@H](Cc1c[nH]c2ccccc12)C(=O)N[C@@H](CCCN=C(N)N)C(=O)N[C@@H](CCCCN)C(=O)N[C@@H](CCC(N)=O)C(=O)N[C@@H](C)C(=O)N[C@@H](CCCCN)C(=O)N[C@@H](C)C(=O)N[C@@H](CCCCN)C(=O)N[C@@H](CO)C(=O)N[C@@H](CCCCN)C(N)=O)[C@@H](C)CC [LLIILRRRWRKQAKAKSK] | 
4 | ≥ 224 µM |  |  |  |  |  |  | NCCCC[C@H](NC(=O)[C@H](Cc1c[nH]c2ccccc12)NC(=O)[C@H](Cc1c[nH]c2ccccc12)NC(=O)[C@H](CCCCN)NC(=O)[C@H](CCCN=C(N)N)NC(=O)[C@H](CCCN=C(N)N)NC(=O)[C@@H](N)CCCN=C(N)N)C(=O)O [RRRKWWK] | 
5 | 13.3 µM (≈ 16 µg/mL) |  |  |  |  |  |  | NC(N)=NCCC[C@H](NC(=O)[C@H](CCCN=C(N)N)NC(=O)[C@H](CCCN=C(N)N)NC(=O)[C@@H](N)CCCN=C(N)N)C(=O)N[C@@H](Cc1c[nH]c2ccccc12)C(=O)N[C@@H](Cc1c[nH]c2ccccc12)C(=O)N[C@@H](Cc1c[nH]c2ccccc12)C(=O)O [RRRRWWW] | MIC [7]: 125 µM (≈ 150 µg/mL); MIC [8]: 125 µM (≈ 150 µg/mL)

The remaining lines, values behind:

Row | Structure (SMILES) | MIC (Streptococcus mutans) | MIC [1] | MIC [2] | MIC [3] | MIC [4] | MIC [5] | MIC [6] | further results
6 | CC[C@H](C)[C@H](NC(=O)[C@H](CCCCN)NC(=O)[C@@H]1CCCN1C(=O)[C@H](CC(C)C)NC(=O)[C@@H](N)CCCCN)C(=O)N[C@@H](Cc1c[nH]c2ccccc12)C(=O)N[C@@H](Cc1c[nH]c2ccccc12)C(=O)N[C@H](C(=O)N[C@@H](CCCCN)C(=O)N[C@H](C(=O)N1CCC[C@H]1C(=O)N[C@@H](CCCCN)C(N)=O)C(C)C)[C@@H](C)CC [KLPKIWWIKVPK] |  | 4.07 µM (≈ 6.25 µg/mL) | 4.07 µM (≈ 6.25 µg/mL) | 4.07 µM (≈ 6.25 µg/mL) | 8.14 µM (≈ 12.5 µg/mL) | 8.14 µM (≈ 12.5 µg/mL) | 4.07 µM (≈ 6.25 µg/mL) | 
7 | CC(C)C[C@H](NC(=O)[C@H](Cc1ccc(O)cc1)NC(=O)[C@H](Cc1cnc[nH]1)NC(=O)[C@@H](NC(=O)[C@H](CC(C)C)NC(=O)[C@H](C)NC(=O)[C@H](C)NC(=O)[C@H](CCCCN)NC(=O)[C@H](C)NC(=O)[C@@H](NC(=O)[C@H](Cc1cnc[nH]1)NC(=O)[C@H](CCCCN)NC(=O)CNC(=O)[C@@H](NC(=O)[C@H](Cc1cnc[nH]1)NC(=O)[C@H](C)NC(=O)[C@H](C)NC(=O)[C@H](CCCCN)NC(=O)[C@H](CCCCN)NC(=O)[C@H](Cc1ccccc1)NC(=O)[C@H](Cc1ccccc1)NC(=O)[C@H](CO)NC(=O)CNC(=O)[C@H](Cc1c[nH]c2ccccc12)NC(=O)CN)C(C)C)C(C)C)[C@@H](C)O)C(=O)O [GWGSFFKKAAHVGKHVAKAALTHYL] |  | 2 µM (≈ 5.45 µg/mL) | 2 µM (≈ 5.45 µg/mL) | 1 µM (≈ 2.73 µg/mL) | 2 µM (≈ 5.45 µg/mL) | 1 µM (≈ 2.73 µg/mL) | 2 µM (≈ 5.45 µg/mL) | 
8 | CC(C)C[C@H](NC(=O)[C@@H](NC(=O)[C@H](CCCN=C(N)N)NC(=O)[C@H](CCCCN)NC(=O)[C@@H](NC(=O)[C@H](CCCCN)NC(=O)[C@H](CCC(N)=O)NC(=O)[C@H](C)NC(=O)[C@H](CC(C)C)NC(=O)[C@@H](N)CCCCN)C(C)C)C(C)C)C(=O)N[C@@H](CCCN=C(N)N)C(=O)O [KLAQKVKRVLR] | ≥ 93.4 µM |  |  |  |  |  |  | 
9 | CC[C@H](C)[C@H](N)C(=O)N[C@@H](CC(C)C)C(=O)N[C@@H](CCCCN)C(=O)N[C@@H](CC(C)C)C(=O)N[C@@H](Cc1ccccc1)C(=O)N[C@@H](CCCCN)C(=O)N[C@@H](CCCN=C(N)N)C(=O)N[C@H](C(=O)N[C@H](C(=O)N[C@@H](CCCCN)C(=O)N[C@@H](CCCN=C(N)N)C(=O)N[C@H](C(=O)N[C@@H](CC(C)C)C(=O)N[C@@H](CCCCN)C(=O)N[C@@H](Cc1ccccc1)C(=O)N[C@@H](CC(C)C)C(=O)N[C@@H](CCCN=C(N)N)C(=O)N[C@@H](CCCCN)C(=O)N[C@@H](CC(C)C)C(=O)O)[C@@H](C)CC)C(C)C)[C@@H](C)CC [ILKLFKRIVKRILKFLRKL] |  | 8 µM (≈ 19.4 µg/mL) | 8 µM (≈ 19.4 µg/mL) | 4 µM (≈ 9.7 µg/mL) | 8 µM (≈ 19.4 µg/mL) | 8 µM (≈ 19.4 µg/mL) | 4 µM (≈ 9.7 µg/mL) | 
10 | CC[C@H](C)[C@H](N)C(=O)N[C@@H](CCCCN)C(=O)N[C@@H](CCC(N)=O)C(=O)N[C@@H](CC(C)C)C(=O)N[C@@H](CC(C)C)C(=O)N[C@@H](Cc1cnc[nH]1)C(=O)N[C@@H](Cc1ccccc1)C(=O)N[C@@H](Cc1ccccc1)C(=O)N[C@@H](CCC(N)=O)C(=O)N[C@@H](CCCN=C(N)N)C(=O)N[C@@H](Cc1ccccc1)C(=O)NCC(=O)NCC(=O)NCC(=O)N[C@@H](CCCN=C(N)N)C(=O)N[C@@H](Cc1c[nH]c2ccccc12)C(=O)N[C@@H](CCCN=C(N)N)C(=O)N[C@@H](CCCN=C(N)N)C(=O)N[C@@H](CC(C)C)C(=O)N[C@@H](CC(C)C)C(=O)N[C@@H](CCCCN)C(=O)N[C@@H](CCCCN)C(=O)N[C@@H](CC(C)C)C(=O)N[C@@H](Cc1cnc[nH]1)C(=O)N[C@@H](Cc1cnc[nH]1)C(=O)N[C@@H](CC(C)C)C(=O)N[C@@H](CC(C)C)C(=O)N[C@@H](Cc1cnc[nH]1)C(N)=O [IKQLLHFFQRFGGGRWRRLLKKLHHLLH] | 4.52 µM (≈ 16 µg/mL) |  |  |  |  |  |  | 
11 | CC[C@H](C)[C@H](N)C(=O)N[C@@H](CCCCN)C(=O)N[C@H](C(=O)N[C@@H](CC(C)C)C(=O)N[C@@H](CC(C)C)C(=O)N[C@@H](Cc1cnc[nH]1)C(=O)N[C@@H](Cc1ccccc1)C(=O)N[C@@H](Cc1ccccc1)C(=O)N[C@@H](CCC(N)=O)C(=O)N[C@@H](CCCN=C(N)N)C(=O)N[C@@H](Cc1ccccc1)C(N)=O)[C@@H](C)O [IKTLLHFFQRF] | 30.8 µM (≈ 44.7 µg/mL) |  |  |  |  |  |  | 
12 | CC(C)C[C@H](NC(=O)[C@H](Cc1c[nH]c2ccccc12)NC(=O)[C@H](CCC(N)=O)NC(=O)[C@H](CC(C)C)NC(=O)[C@H](Cc1ccccc1)NC(=O)[C@@H](NC(=O)[C@H](CCCCN)NC(=O)[C@@H](N)Cc1ccccc1)[C@@H](C)O)C(=O)N[C@@H](Cc1cnc[nH]1)C(=O)N[C@@H](CCCN=C(N)N)C(=O)N[C@@H](Cc1ccccc1)C(N)=O [FKTFLQWLHRF] | 21 µM (≈ 32 µg/mL) |  |  |  |  |  |  | 
13 | CC[C@H](C)[C@H](NC(=O)[C@H](CCC(N)=O)NC(=O)[C@H](CCC(N)=O)NC(=O)[C@@H](NC(=O)[C@@H](NC(=O)[C@H](CCCN=C(N)N)NC(=O)[C@H](CCCCN)NC(=O)[C@H](Cc1ccccc1)NC(=O)CN)[C@@H](C)CC)C(C)C)C(=O)N[C@@H](CCC(N)=O)C(=O)N[C@@H](CC(=O)O)C(=O)N[C@@H](Cc1ccccc1)C(=O)N[C@@H](CC(C)C)C(=O)N[C@@H](CCCN=C(N)N)C(=O)N[C@@H](CC(N)=O)C(=O)N[C@@H](CC(C)C)C(=O)N[C@H](C(N)=O)C(C)C [GFKRIVQQIQDFLRNLV] |  |  |  |  |  |  |  | MIC [9]: 6.2 µM and 12.5 µM
14 | CC[C@H](C)[C@@H]1NC(=O)[C@@H](NC(=O)[C@H](CCCN=C(N)N)NC(=O)[C@H](CO)NC(=O)[C@@H](N)[C@@H](C)O)CSSC[C@@H](C(=O)N[C@@H](CO)C(=O)O)NC(=O)[C@H](CCCCN)NC(=O)[C@H](CCCCN)NC(=O)[C@H](CCCN=C(N)N)NC(=O)[C@H](CCCN=C(N)N)NC(=O)[C@H](Cc2ccc(O)cc2)NC(=O)[C@H](Cc2ccccc2)NC1=O [TSRCIFYRRKKCS] |  |  |  |  |  |  |  | MIC [10]: 18.2 µM (≈ 30 µg/mL); MIC [11]: 18.2 µM (≈ 30 µg/mL); MIC [12]: > 72.8 µM; MIC [13]: 18.2 µM (≈ 30 µg/mL)
15 | CC(C)C[C@H](NC(=O)[C@H](CCCCN)NC(=O)[C@H](CCCCN)NC(=O)[C@H](CC(C)C)NC(=O)[C@H](CC(C)C)NC(=O)[C@H](CCCCN)NC(=O)[C@H](CCCCN)NC(=O)[C@H](CC(C)C)NC(=O)[C@H](CCCCN)NC(=O)[C@H](CCCCN)NC(=O)[C@H](CCCN=C(N)N)NC(=O)[C@H](CC(C)C)NC(=O)[C@H](CCCN=C(N)N)NC(=O)[C@H](CCCCN)NC(=O)[C@H](CC(C)C)NC(=O)[C@H](CCCN=C(N)N)NC(=O)CN)C(=O)N[C@@H](CO)C(N)=O [GRLKRLRKKLKKLLKKLS] |  | 4 µM (≈ 8.82 µg/mL) | 2 µM (≈ 4.41 µg/mL) | 8 µM (≈ 17.6 µg/mL) | 8 µM (≈ 17.6 µg/mL) | 4 µM (≈ 8.82 µg/mL) | 4 µM (≈ 8.82 µg/mL) | 
